Data on 24 molecules can be found in US6586402B1, “LH-RH peptide analogues, their uses and pharmaceutical compositions containing them” (Laboratoire Theramex, priority 1997, dated 2003).

“Also recorded” adds a separate entry of the source. Square brackets hold non-standard residues; d marks the D form. Peptide text beside a SMILES is read from it. dPhe(4-Cl) = N[C@H](Cc1ccc(Cl)cc1)C(=O)O; 1Nal = N[C@@H](Cc1cccc2ccccc12)C(=O)O; d2Nal = N[C@H](Cc1ccc2ccccc2c1)C(=O)O; d(hCit) = NC(=O)NCCCC[C@@H](N)C(=O)O; dCit = NC(=O)NCCC[C@@H](N)C(=O)O; tBuAla = CC(C)(C)C[C@H](N)C(=O)O; d3Pal = N[C@H](Cc1cccnc1)C(=O)O; pGlu = O=C1CC[C@@H](C(=O)O)N1

Experiment [1] concerns the target T1, LH-RH receptors (Rattus norvegicus, UniProt P30969).
T1 sequence (P30969 1-327): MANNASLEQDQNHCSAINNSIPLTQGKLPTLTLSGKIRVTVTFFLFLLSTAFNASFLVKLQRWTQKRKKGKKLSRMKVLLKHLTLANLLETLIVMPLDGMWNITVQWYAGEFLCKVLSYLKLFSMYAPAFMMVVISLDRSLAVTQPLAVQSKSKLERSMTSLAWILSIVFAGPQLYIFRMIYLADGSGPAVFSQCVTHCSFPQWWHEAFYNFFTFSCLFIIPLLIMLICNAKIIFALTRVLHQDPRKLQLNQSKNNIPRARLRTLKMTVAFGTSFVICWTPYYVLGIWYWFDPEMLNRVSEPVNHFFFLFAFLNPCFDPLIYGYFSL
In words: biochemical.

Experiment [2] deals with LH-RH receptors (membrane fractions of pituitaries from female Sprague Dawley rats) (rat (female Sprague Dawley)) (UniProt P30969). The experiment can be described thus: competition with [125I]-buserelin, rat pituitary membranes; Ki by Cheng-Prusoff.
Experiment [3] deals with T1, LH-RH receptors. In words: Stimulation of testosterone secretion in adult male rats after subcutaneous injection (agonist activity in vivo). Further details: exert an agonist activity upon the LH-RH receptors in vivo; from tissue; host or cells: whole animal, adult male Sprague-Dawley rats; species or system Sprague-Dawley rats. The settings on record: for agonistic potency in words / activity in stimulating testosterone secretion relative to the Leu^7 counterpart: 10 ng/kg s.c.; for agonistic potency in words: comment on Tables 2 and 3; for Total plasma testosterone: 10 ng/kg subcutaneous in PBS, blood two hours later, male Sprague-Dawley rats. As for the experimental part: The peptides according to the general formula (IIa) exert an agonist activity upon the LH-RH receptors in vivo, resulting in the stimulation of LH secretion by the pituitary, which, in males, stimulates the secretion of testosterone by the testis.
Two hours later, blood samples were drawn for total plasma testosterone determination by direct radioimmunoassay (Immunotech).
At this intermediate dose of 10 ng/kg, several examples with Npg^7 or Ada^7 in place of Leu^7 according to the invention were screened for agonistic activity (Tables 2 and 3). When available from Bachem (France) or Sigma (France), the corresponding standard agonist with Leu^7 was tested for comparison.

Regarding `CCNC(=O)[C@@H]1CCCN1C(=O)[C@H](CCCNC(=N)N)NC(=O)[C@H](CC(C)C)NC(=O)[C@@H](COC(C)(C)C)NC(=O)[C@H](Cc1ccc(O)cc1)NC(=O)[C@H](CO)NC(=O)[C@H](Cc1c[nH]c2ccccc12)NC(=O)[C@H](Cc1cnc[nH]1)NC(=O)[C@@H]1CCC(=O)N1` [Buserelin, reference compound], on LH-RH receptors [1], the Ki (in general, the dissociation constant of the complex between target and ligand, obtained from inhibition or displacement) was 0.447 nM.
With “pGlu-His-Trp-Ser-Tyr-D-Npg-Npg-Arg-Pro-NEt (peptide)”, in experiment [2], the pKi – broadly, the Ki on a negative log10 scale, so that one unit is a factor of ten – is 8.73 -log Ki.
Turning to “AcD-Nal-D-pClPhe-D-Pal-Ser-Tyr-D-Cit-Npg-IprLys-Pro-D-Ala-NH2 (peptide)”, in experiment [2], the pKi is 9.72 -log Ki.
As for `CCNC(=O)[C@@H]1CCCN1C(=O)[C@H](CCCNC(=N)N)NC(=O)[C@H](CC(C)(C)C)NC(=O)[C@@H](Cc1ccc2ccccc2c1)NC(=O)[C@H](Cc1ccc(O)cc1)NC(=O)[C@H](CO)NC(=O)[C@H](Cc1c[nH]c2ccccc12)NC(=O)[C@H](Cc1c[nH]cn1)NC(=O)[C@@H]1CCC(=O)N1` [Example 14, pGlu-His-Trp-Ser-Tyr-D-Nal-Npg-Arg-Pro-NEt], the Ki at LH-RH receptors [1] was 0.316 nM.
`CC(C)(C)C[C@H](NC(=O)[C@@H](Cc1ccc2ccccc2c1)NC(=O)[C@H](Cc1ccc(O)cc1)NC(=O)[C@H](CO)NC(=O)[C@H](Cc1c[nH]c2ccccc12)NC(=O)[C@H](Cc1c[nH]cn1)NC(=O)[C@@H]1CCC(=O)N1)C(=O)N[C@@H](CCCNC(=N)N)C(=O)N1CCC[C@H]1C(=O)NCC(N)=O` [Example 13, pGlu-His-Trp-Ser-Tyr-D-Nal-Npg-Arg-Pro-Gly-NH2] ([pGlu]HWSY[d2Nal][tBuAla]RPG-NH2) showed a Ki at LH-RH receptors [1] of 1.07 nM. The “agonistic potency in words” value on LH-RH receptors [3] is on record as “range of potency similar to that of leuprorelin or tryptorelin”. The molecule also came in with a Total plasma testosterone at LH-RH receptors [3] (Table 2, vehicle 2.7 ± 0.3) of 22.9 ± 4.2 nmol/L.
In turn, `CCNC(=O)[C@@H]1CCCN1C(=O)[C@H](CCCNC(=N)N)NC(=O)[C@H](CC(C)(C)C)NC(=O)[C@@H](CC(C)C)NC(=O)[C@H](Cc1ccc(O)cc1)NC(=O)[C@H](CO)NC(=O)[C@H](Cc1c[nH]c2ccccc12)NC(=O)[C@H](Cc1c[nH]cn1)NC(=O)[C@@H]1CCC(=O)N1` [Example 6, pGlu-His-Trp-Ser-Tyr-D-Leu-Npg-Arg-Pro-NEt] gave a Ki at LH-RH receptors [1] of 0.468 nM. In addition, on LH-RH receptors [3], the “activity in stimulating testosterone secretion relative to the Leu^7 counterpart” value is “a little more than twice as active as leuprorelin” and the “agonistic potency in words” value was “Npg^7 led to more potent agonists than Ada^7; also recorded: more potent LH-RH agonists than current therapeutic LH-RH analogues”. On LH-RH receptors [3] (Table 2, vehicle 2.7 ± 0.3), this molecule registered a Total plasma testosterone of 48.6 ± 4.3 nmol/L.
Molecule `CCNC(=O)[C@@H]1CCCN1C(=O)[C@H](CCCNC(=N)N)NC(=O)[C@H](CC(C)(C)C)NC(=O)[C@@H](C)NC(=O)[C@H](Cc1ccc(O)cc1)NC(=O)[C@H](CO)NC(=O)[C@H](Cc1c[nH]c2ccccc12)NC(=O)[C@H](Cc1c[nH]cn1)NC(=O)[C@@H]1CCC(=O)N1` [Example 4, pGlu-His-Trp-Ser-Tyr-D-Ala-Npg-Arg-Pro-NEt] had a Ki at LH-RH receptors [1] of 0.0977 nM. At LH-RH receptors [3] (Table 2, vehicle 2.7 ± 0.3), this molecule yielded a Total plasma testosterone of 33.8 ± 5.8 nmol/L.
Take `CCNC(=O)[C@@H]1CCCN1C(=O)[C@H](CCCNC(=N)N)NC(=O)[C@H](CC(C)(C)C)NC(=O)[C@@H](CC(C)(C)C)NC(=O)[C@H](Cc1ccc(O)cc1)NC(=O)[C@H](CO)NC(=O)[C@H](Cc1c[nH]c2ccccc12)NC(=O)[C@H](Cc1c[nH]cn1)NC(=O)[C@@H]1CCC(=O)N1` [Example 8, pGlu-His-Trp-Ser-Tyr-D-Npg-Npg-Arg-Pro-NEt]: at LH-RH receptors [1], the affinity corresponds to a Ki of 1.86 nM.
Consider Goserelin (peptide), for which the negative logarithm of the Ki (pKi) in experiment [2] is 8.58 -log Ki.
For the molecule “pGlu-His-Trp-Ser-Tyr-D-Ala-Npg-Arg-Pro-NEt (peptide)”, in experiment [2], the pKi was 10 -log Ki.
Same read-out and setting: with “pGlu-His-Trp-Ser-Tyr-D-Nal-Npg-Arg-Pro-NEt (peptide)” the figure was 9.5 -log Ki; with “AcD-Nal-D-pClPhe-D-Pal-Ser-Tyr-D-HCit-Npg-IprLys-Pro-D-Ala-NH2 (peptide)”, 10.1 -log Ki; with “pGlu-His-Trp-Ser-Tyr-D-Phe-Npg-Arg-Pro-NEt (peptide)”, 9.64 -log Ki.
Same read-out and setting: with “AcD-Nal-D-pClPhe-D-Pal-Ser-NicLys-D-NicLys-Npg-IprLys-Pro-D-Ala-NH2 (peptide)” the figure was 9.23 -log Ki.
Consider `CC(C)(C)C[C@H](NC(=O)[C@@H](Cc1c[nH]c2ccccc12)NC(=O)[C@H](Cc1ccc(O)cc1)NC(=O)[C@H](CO)NC(=O)[C@H](Cc1c[nH]c2ccccc12)NC(=O)[C@H](Cc1c[nH]cn1)NC(=O)[C@@H]1CCC(=O)N1)C(=O)N[C@@H](CCCNC(=N)N)C(=O)N1CCC[C@H]1C(=O)NCC(N)=O` [Example 11, pGlu-His-Trp-Ser-Tyr-D-Trp-Npg-Arg-Pro-Gly-NH2] ([pGlu]HWSY[dW][tBuAla]RPG-NH2), for which, at LH-RH receptors [3], the “activity in stimulating testosterone secretion relative to the Leu^7 counterpart” value is “a little more than twice as active” and the “agonistic potency in words” value is “Npg^7 led to more potent agonists than Ada^7”. Also, the Total plasma testosterone on LH-RH receptors [3] (Table 2, vehicle 2.7 ± 0.3) worked out at 30.8 ± 3.5 nmol/L.
Regarding `CCNC(=O)[C@@H]1CCCN1C(=O)[C@H](CCCNC(=N)N)NC(=O)[C@H](CC(C)(C)C)NC(=O)[C@@H](CC(C)C)NC(=O)[C@H](Cc1ccc(O)cc1)NC(=O)[C@H](CO)NC(=O)[C@H](Cc1cccc2ccccc12)NC(=O)[C@H](Cc1c[nH]cn1)NC(=O)[C@@H]1CCC(=O)N1` [Example 24, pGlu-His-1Nal-Ser-Tyr-D-Leu-Npg-Arg-Pro-NEt] ([pGlu]H[1Nal]SY[dL][tBuAla]RP-NHEt), the Total plasma testosterone at LH-RH receptors [3] (Table 3, vehicle 4.3 ± 1.2) was determined as 14.3 ± 4.3 nmol/L.
At LH-RH receptors [3] (Table 2, vehicle 2.7 ± 0.3), `CC(C)C[C@H](NC(=O)[C@@H](Cc1c[nH]c2ccccc12)NC(=O)[C@H](Cc1ccc(O)cc1)NC(=O)[C@H](CO)NC(=O)[C@H](Cc1c[nH]c2ccccc12)NC(=O)[C@H](Cc1c[nH]cn1)NC(=O)[C@@H]1CCC(=O)N1)C(=O)N[C@@H](CCCNC(=N)N)C(=O)N1CCC[C@H]1C(=O)NCC(N)=O` [Tryptorelin, reference compound] displayed a Total plasma testosterone of 20.3 ± 2.5 nmol/L.
As to “pGlu-His-Trp-Ser-Tyr-D-Trp-Npg-Arg-Pro-NEt (peptide)”, the pKi in experiment [2] was 9.79 -log Ki.

B1: pGlu-His-Trp-Ser-Tyr-D-Ala-Npg-Arg-Pro-Gly-NH2 (peptide)
peptide: XHWSYXXRPG
modifications: pGlu at 1; D-Ala at 6; Npg at 7; C-terminal Gly-NH2 (amide)
B1: the pKi in experiment [2] was 9.57 -log Ki.

B2: pGlu-His-Trp-Ser-Tyr-D-Phe-Npg-Arg-Pro-Gly-NH2 (peptide)
peptide: XHWSYXXRPG
modifications: pGlu at 1; D-Phe at 6; Npg at 7; C-terminal Gly-NH2 (amide)
In the case of B2, the pKi in experiment [2] is 8.63 -log Ki.

B3: pGlu-His-Trp-Ser-Tyr-D-Npg-Npg-Arg-Pro-Gly-NH2 (peptide)
peptide: XHWSYXXRPG
modifications: pGlu at 1; D-Npg at 6; Npg at 7; C-terminal Gly-NH2 (amide)
Turning to B3, the pKi in experiment [2] is 8.2 -log Ki.

B4: pGlu-His-Trp-Ser-Tyr-D-Nal-Npg-Arg-Pro-Gly-NH2 (peptide)
peptide: XHWSYXXRPG
modifications: pGlu at 1; D-Nal (3-(2-naphtyl)alanine) at 6; Npg at 7; C-terminal Gly-NH2 (amide)
For the molecule B4, the pKi in experiment [2] was 8.97 -log Ki.

B5: AcD-Nal-D-pClPhe-D-Pal-Ser-Tyr-D-Cit-Npg-Arg-Pro-D-Ala-NH2 (peptide)
peptide: Ac-X[dPhe(4-Cl)][d3Pal]SY[dCit][tBuAla]RP[dA]-NH2
modifications: not fully specified (residue 1); printed as AcD-Nal-D-pClPhe-D-Pal-Ser-Tyr-D-Cit-Npg-Arg-Pro-D-Ala-NH2; also: trifluoroacetate salt
With B5, the pKi in experiment [2] was 10.2 -log Ki.

B6: AcD-Nal-D-pClPhe-D-Pal-Ser-Tyr-D-HCit-Npg-Arg-Pro-D-Ala-NH2 (peptide)
peptide: Ac-X[dPhe(4-Cl)][d3Pal]SY[d(hCit)][tBuAla]RP[dA]-NH2
modifications: not fully specified (residue 1); printed as AcD-Nal-D-pClPhe-D-Pal-Ser-Tyr-D-HCit-Npg-Arg-Pro-D-Ala-NH2; also: trifluoroacetate salt
In the case of B6, in experiment [2], the pKi is 10.1 -log Ki.
